Where “and” joins values, the source holds several entries; their conditions need not be identical. Equal entries are not always repeated.
Tests used:
[1] = Dual label excretion studies of 188Re-MAG3 and 99mTc-MAG3 in rats (urine, feces); assay type: in vivo; parameters: Excretion kinetics of ^188 Re-MAG3 in feces of rats, 2 h / Excretion kinetics of ^188 Re-MAG3 in feces of rats, 8 h / Excretion kinetics of ^188 Re-MAG3 in feces of rats, 10 h / Excretion kinetics of ^188 Re-MAG3 in feces of rats, 12 h / Excretion kinetics of ^188 Re-MAG3 in feces of rats, 24 h / Excretion kinetics of ^188 Re-MAG3 in feces of rats, 48 h / Excretion kinetics of ^188 Re-MAG3 in feces of rats, Total: unit not given here
Description: Comparison of the Excretion of ^188 Re-MAG3 with ^99 mTc-MAG3 in rats
Dual Label Excretion Studies of ^188 Re-MAG3 and ^99m Tc-MAG3 in Rats

[2] = Biodistribution of 99mTc-MAG3 and 188Re-MAG3 in a dual label study, tail vein injection; assay type: in vivo, rats; settings: ± standard deviation
Description: Biodistribution Data for ^99m Tc-MAG3 and ^188 Re-MAG3 in a dual label study

[3] = Stability of 188Re-MAG3 in presence of Hypaque contrast agent; assay type: physicochemical
Protocol: Stability of ^188 Re-MAG3 in Presence of Hypaque Contrast Agent
^188 Re-MAG3 was prepared as in the upper case starting with an activity of 851 Mbq (23 mCi). After the End of Synthesis, QC via HPLC and TLC, 2 mL of a 50% Triazoate solution was added. Triazoate is known as Hypaque and is the 3,5-Bis(acetylamino)-2,4,6-triiodobenzoic acid sodium salt.

[4] = MIRD calculation of individual organ dose of released 188Re-MAG3; settings: based on animal data and human 99mTc-MAG3 distribution
Description: As alluded to previously, the probability of balloon rupture at nominal balloon inflation pressures are substantially less than one percent. Animal experiments and calculations of the individual organ dose received by a ^188 Re-MAG3 release have been done. Because the isotope is in solution, there would be no significant local arterial deposition. In fact, attempts to intentionally deposit soluble compounds in vessel walls for their pharmacological properties have been notoriously poor. The distribution and elimination of simultaneously injected ^99 mTc-MAG3 and ^188 Re-MAG3 in rats are identical. Based upon these findings Dr. Michael Stabin of the Oak Ridge Institute for Science and Education (ORISE) has calculated, based on the MIRD formalism, the individual organ dose of released ^188 Re-MAG3. The only organ receiving a dose of greater than 5 cGy would be the urinary bladder wall. This assumes spontaneous urination every 4-6 hours. […] Thus, release of the isotope upon balloon rupture would necessitate placing a bladder catheter until the urinary counts excreted return to background. Based on animal data, and on human ^99m Tc-MAG3 distribution this should occur in less than 12 hours.

[5] = HPLC and ITLC evaluation of 188Re-MAG3 up to five hours after preparation; assay type: physicochemical; settings: periods up to five hours after preparation
[6] = 188Re-MAG3 stability study at high radioactivity levels (HPLC, TLC); assay type: physicochemical
Protocol: Stability-^188 Re-MAG3 Stability Study at High Radioactivity Levels
^188 Re-MAG3 was prepared using the protocol as described above however using 1 mL generator eluate to dissolve the contents of a commercial MAG3 Kit and addition of 1 mL of SnCl2 /citrate solution. The starting activity in 1 ml generator eluate was 1220 Mbq (33 mCi). Thus the concentration of citrate and stannous ions were maintained, however the concentration of the Kit contents in especially the Benzoyl-MAG3 precursor is reduced to half of the original protocol.
The stability was tested using HPLC-chromatography and also TLC as additional control.

[7] = 20 min after mixing with Hypaque
[8] = 80 min after mixing with Hypaque
[9] = 140 min after mixing with Hypaque
[10] = EOS - before addition of Hypaque

O=C(O)C[N]1C(=O)C[N]2C(=O)C[N]3C(=O)C[S][188Re-]132=[O] [^188 Re-MAG3]
Excretion kinetics of ^188 Re-MAG3 in feces of rats, 2 h ([1]; feces, 2 h, individual rats #1-4, 120 min): 0.03 and 1.50 and 0.01
Excretion kinetics of ^188 Re-MAG3 in feces of rats, 4 h ([1]; feces, 4 h, individual rats #1-4): 0
Excretion kinetics of ^188 Re-MAG3 in feces of rats, 6 h ([1]; feces, 6 h, individual rats #1-4): 0
Excretion kinetics of ^188 Re-MAG3 in feces of rats, 8 h ([1]; feces, 8 h, individual rats #1-4, 480 min): 0.02 and 0 and 1.30 and 0.04
Excretion kinetics of ^188 Re-MAG3 in feces of rats, 10 h ([1]; feces, 10 h, individual rats #1-4, 600 min): 0.41 and 3.79 and 1.79 and 1.67
Excretion kinetics of ^188 Re-MAG3 in feces of rats, 12 h ([1]; feces, 12 h, individual rats #1-4, 720 min): 1.17 and 1.09 and 0 and 2.24
Excretion kinetics of ^188 Re-MAG3 in feces of rats, 24 h ([1]; feces, 24 h, individual rats #1-4, 1440 min): 5.86 and 6.46 and 4.47 and 3.46
Excretion kinetics of ^188 Re-MAG3 in feces of rats, 48 h ([1]; feces, 48 h, individual rats #1-4, 2880 min): 0.85 and 2.26 and 0.52 and 0.70
Excretion kinetics of ^188 Re-MAG3 in feces of rats, Total ([1]; feces, Total, individual rats #1-4): 8.34 and 15.1 and 8.08 and 8.12
Excretion kinetics of ^188 Re-MAG3 in feces of rats, Total, mean ([1]; feces, Total, mean of 4 rats, S.D. on separate line): 9.91
distribution and elimination, 99mTc-MAG3 versus 188Re-MAG3 ([1]; simultaneously injected in rats): identical
Excretion kinetics of ^188 Re-MAG3 in urine of rats, 6 h, mean ([1]; urine, 6 h, mean of 4 rats, S.D. on separate line): 0.97
Excretion kinetics of ^188 Re-MAG3 in urine of rats, 8 h, mean ([1]; urine, 8 h, mean of 4 rats, S.D. on separate line): 2.75
Excretion kinetics of ^188 Re-MAG3 in urine of rats, 10 h, mean ([1]; urine, 10 h, mean of 4 rats, S.D. on separate line): 1.15
Excretion kinetics of ^188 Re-MAG3 in urine of rats, 12 h, mean ([1]; urine, 12 h, mean of 4 rats, S.D. on separate line): 0.83
Excretion kinetics of ^188 Re-MAG3 in urine of rats, 24 h, mean ([1]; urine, 24 h, mean of 4 rats, S.D. on separate line): 5.07
Excretion kinetics of ^188 Re-MAG3 in urine of rats, 48 h, mean ([1]; urine, 48 h, mean of 4 rats, S.D. on separate line): 1.76
Excretion kinetics of ^188 Re-MAG3 in urine of rats, Total, mean ([1]; urine, Total, mean of 4 rats, S.D. on separate line): 81.97
Biodistribution of ^188 Re-MAG3, blood ([2]; 2 h): 0.07 ± 0.01 % inj. dose/g tissue
Biodistribution of ^188 Re-MAG3, blood ([2]; 6 h): 0.08 ± 0.02 % inj. dose/g tissue
Biodistribution of ^188 Re-MAG3, blood ([2]; 24 h): 0.05 ± 0.02 % inj. dose/g tissue
Biodistribution of ^188 Re-MAG3, bone ([2]; 2 h): 0.09 ± 0.11 % inj. dose/g tissue
Biodistribution of ^188 Re-MAG3, bone ([2]; 6 h): 0.01 ± 0.01 % inj. dose/g tissue
Biodistribution of ^188 Re-MAG3, bone ([2]; 24 h): 0.04 ± 0.05 % inj. dose/g tissue
Biodistribution of ^188 Re-MAG3, contents of l.i. ([2]; 2 h): 0.87 ± 0.32 % inj. dose/g tissue
Biodistribution of ^188 Re-MAG3, contents of l.i. ([2]; 6 h): 1.42 ± 0.33 % inj. dose/g tissue
Biodistribution of ^188 Re-MAG3, contents of l.i. ([2]; 24 h): 0.05 ± 0.01 % inj. dose/g tissue
Biodistribution of ^188 Re-MAG3, contents of s.i. ([2]; 2 h): 1.97 ± 2.58 % inj. dose/g tissue
Biodistribution of ^188 Re-MAG3, contents of s.i. ([2]; 6 h): 0.06 ± 0.05 % inj. dose/g tissue
Biodistribution of ^188 Re-MAG3, contents of s.i. ([2]; 24 h): 0.02 ± 0.01 % inj. dose/g tissue
Biodistribution of ^188 Re-MAG3, heart ([2]; 2 h): 0.02 ± 0.03 % inj. dose/g tissue
Biodistribution of ^188 Re-MAG3, heart ([2]; 6 h): 0.00 ± 0.00 % inj. dose/g tissue
Biodistribution of ^188 Re-MAG3, heart ([2]; 24 h): 0.01 ± 0.00 % inj. dose/g tissue
Biodistribution of ^188 Re-MAG3, kidneys ([2]; 2 h): 0.12 ± 0.03 % inj. dose/g tissue
Biodistribution of ^188 Re-MAG3, kidneys ([2]; 6 h): 0.11 ± 0.02 % inj. dose/g tissue
Biodistribution of ^188 Re-MAG3, kidneys ([2]; 24 h): 0.07 ± 0.01 % inj. dose/g tissue
Biodistribution of ^188 Re-MAG3, l. intestine ([2]; 2 h): 0.06 ± 0.02 % inj. dose/g tissue
Biodistribution of ^188 Re-MAG3, l. intestine ([2]; 6 h): 0.13 ± 0.03 % inj. dose/g tissue
Biodistribution of ^188 Re-MAG3, l. intestine ([2]; 24 h): 0.02 ± 0.00 % inj. dose/g tissue
Biodistribution of ^188 Re-MAG3, liver ([2]; 2 h): 0.03 ± 0.01 % inj. dose/g tissue
Biodistribution of ^188 Re-MAG3, liver ([2]; 6 h): 0.03 ± 0.00 % inj. dose/g tissue
Biodistribution of ^188 Re-MAG3, liver ([2]; 24 h): 0.02 ± 0.00 % inj. dose/g tissue
Biodistribution of ^188 Re-MAG3, lung ([2]; 2 h): 0.05 ± 0.02 % inj. dose/g tissue
Biodistribution of ^188 Re-MAG3, lung ([2]; 6 h): 0.02 ± 0.00 % inj. dose/g tissue
Biodistribution of ^188 Re-MAG3, lung ([2]; 24 h): 0.01 ± 0.01 % inj. dose/g tissue
Biodistribution of ^188 Re-MAG3, s. intestine ([2]; 2 h): 0.06 ± 0.04 % inj. dose/g tissue
Biodistribution of ^188 Re-MAG3, s. intestine ([2]; 6 h): 0.01 ± 0.00 % inj. dose/g tissue
Biodistribution of ^188 Re-MAG3, s. intestine ([2]; 24 h): 0.01 ± 0.00 % inj. dose/g tissue
Biodistribution of ^188 Re-MAG3, spleen ([2]; 2 h): 0.03 ± 0.02 % inj. dose/g tissue
Biodistribution of ^188 Re-MAG3, spleen ([2]; 6 h): 0.00 ± 0.01 % inj. dose/g tissue
Biodistribution of ^188 Re-MAG3, spleen ([2]; 24 h): 0.02 ± 0.01 % inj. dose/g tissue
Biodistribution of ^188 Re-MAG3, thyroid ([2]; 2 h): 0.70 ± 0.49 % inj. dose/g tissue
Biodistribution of ^188 Re-MAG3, thyroid ([2]; 6 h): 0.76 ± 0.42 % inj. dose/g tissue
Biodistribution of ^188 Re-MAG3, thyroid ([2]; 24 h): 0.74 ± 0.76 % inj. dose/g tissue
Stability in presence of Hypaque, HPLC [3, 7]: > 90%
Stability in presence of Hypaque, TLC [3, 7]: 94.4%
Stability in presence of Hypaque, TLC ([3]; 50 min after mixing with Hypaque): 90.5%
Stability in presence of Hypaque, HPLC [3, 8]: 86.6%
Stability in presence of Hypaque, TLC [3, 8]: 87.7%
Stability in presence of Hypaque, HPLC [3, 9]: 83.3%
Stability in presence of Hypaque, TLC [3, 9]: 83.3%
Stability in presence of Hypaque, HPLC [3, 10]: > 95%
Stability in presence of Hypaque, RP-Sep-Pak [3, 10]: 98.3%
Stability in presence of Hypaque, TLC [3, 10]: 97.6%
radioactive degradation product found ([3]; after mixing with Hypaque): free perrhenate
time until urinary counts excreted return to background [4]: less than 12 hours
stability by HPLC and ITLC [5]: no decomposition or effects of radiolysis have been observed
Stability, HPLC ([6]; 1 hour after EOS): 92.0%
Stability, HPLC ([6]; 2 hours after EOS): 91.1%
Stability, HPLC ([6]; 3 hours after EOS): 90.3%
Stability, HPLC ([6]; 4 hours after EOS): 88.3%
Stability, HPLC ([6]; 5 hours after EOS): 100.8%
Stability, HPLC ([6]; 24 hours after EOS): 92.4%
Stability, TLC ([6]; 24 hours after EOS): 93.4%
Stability, TLC ([6]; End of Synthesis (EOS)): 97.3%
Stability, HPLC ([6]; End of Synthesis (EOS), starting activity 1220 Mbq (33 mCi)): 97.3%

From patent publication US5924973A, “Method of treating a disease process in a luminal structure” (The Trustees of Columbia University in the City of New York, priority 1996, dated 1999)
